Measurements reported in the supplement of paper PMC11061612.

Columns and labels:
EB2 (Burkitt's Lymphoma) = test: combination Emax (second highest fraction inhibited in the dose matrix, 72 h); higher = more inhibition; extreme values may be limits of the assay
In short: (§1)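 Cell lines grown in DMEM/F12 or RPMI with 10% FBS were plated in 1536-well plates and held 24 hours at 37°C, 5% CO2 before 72 hours of exposure to two-drug dose matrices, with DMSO typically at 0.2%. CellTiter-Glo 2.0 luminescence gave viability, which was converted to inhibition. Vehicle wells were set to 0 and blank wells to 1. Combination Emax is the second-highest inhibition in the matrix, and Bliss excess is the observed combination effect minus the expected EA + EB − EA·EB, where EA and EB are the single-agent effects.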

[1] = system: DU-4475 (Breast Carcinoma); test: as above
In short: as §1

[2] = system: NCI-H441 (Lung Adenocarcinoma); test: as above
In short: as §1

A101D (Melanoma) = test: as above
In short: as §1

[3] = system: TE-10 (Esophageal Squamous Cell Carcinoma); test: as above
In short: as §1

[4] = system: HCC1395 (Breast Carcinoma); test: as above
In short: as §1

769-P (Kidney Carcinoma) = test: as above
In short: as §1

COLO-792 (Melanoma) = test: as above
In short: as §1

[5] = system: KYSE-220 (Esophageal Squamous Cell Carcinoma); test: as above
In short: as §1

A204 (Rhabdomyosarcoma) = test: as above
In short: as §1

[6] = system: GA-10 (Burkitt's Lymphoma); test: as above
In short: as §1

[7] = system: TE-10 (Esophageal Squamous Cell Carcinoma); test: Bliss excess, mean over the matrix (fraction); higher = more synergy
In short: as §1
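Wherever Bliss excess, mean over the matrix is given: after 72 h of two-drug dosing.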

SMILES	combination Emax (EB2 (Burkitt's Lymphoma))	combination Emax [1]	combination Emax [2]	combination Emax (A101D (Melanoma))	combination Emax [3]	combination Emax [4]	combination Emax (769-P (Kidney Carcinoma))	combination Emax (COLO-792 (Melanoma))	combination Emax [5]	combination Emax (A204 (Rhabdomyosarcoma))	combination Emax [6]	Bliss excess [7]
CC1(C)CCC(CN2CCN(c3ccc(C(=O)NS(=O)(=O)c4ccc(NCC5CCOCC5)c([N+](=O)[O-])c4)c(Oc4cnc5[nH]ccc5c4)c3)CC2)=C(c2ccc(Cl)cc2)C1 [Venetoclax] + C1CN(CCC1(C(=O)N[C@@H](CCO)C2=CC=C(C=C2)Cl)N)C3=NC=NC4=C3C=CN4 [Capivasertib] (first compound max 1 µM, 7x7, partner max 3 µM)	0.795	0.246	0.326	0.283	0.506	0.662	0.241	0.381	0.223	0.335	0.584	-0.04
CC1(C)CCC(CN2CCN(c3ccc(C(=O)NS(=O)(=O)c4ccc(NCC5CCOCC5)c([N+](=O)[O-])c4)c(Oc4cnc5[nH]ccc5c4)c3)CC2)=C(c2ccc(Cl)cc2)C1 [Venetoclax] + C=CCn1c(=O)c2cnc(Nc3ccc(N4CCN(C)CC4)cc3)nc2n1-c1cccc(C(C)(C)O)n1 [AZD1775] (first compound max 1 µM, partner max 1 µM)	0.932	1	0.489	0.736	0.856	0.81	0.744	0.399	0.832	0.325	1	0.0301
CC1(C)CCC(CN2CCN(c3ccc(C(=O)NS(=O)(=O)c4ccc(NCC5CCOCC5)c([N+](=O)[O-])c4)c(Oc4cnc5[nH]ccc5c4)c3)CC2)=C(c2ccc(Cl)cc2)C1 [Venetoclax] + CCN(CCO)CCCOc1ccc2c(Nc3cc(CC(=O)Nc4cccc(F)c4)[nH]n3)ncnc2c1 [AZD2811] (first compound max 1 µM, 7x7, partner max 1 µM)	0.677	0.404	0.365	0.477	0.59	0.639	0.204	0.446	0.299	0.368	0.598	-0.0502
CC1(C)CCC(CN2CCN(c3ccc(C(=O)NS(=O)(=O)c4ccc(NCC5CCOCC5)c([N+](=O)[O-])c4)c(Oc4cnc5[nH]ccc5c4)c3)CC2)=C(c2ccc(Cl)cc2)C1 [Venetoclax] + CN(C)CCCOc1ccc(-c2ccc3ncc4c(c3c2)n(C2CCOCC2)c(=O)n4C)cn1 [AZD0156] (first compound max 1 µM, 7x7, partner max 1 µM)	0.736	0.0995	0.25	0.365	0.674	0.685	0.256	0.245	0.195	0.31	0.278	0.0071
CC1(C)CCC(CN2CCN(c3ccc(C(=O)NS(=O)(=O)c4ccc(NCC5CCOCC5)c([N+](=O)[O-])c4)c(Oc4cnc5[nH]ccc5c4)c3)CC2)=C(c2ccc(Cl)cc2)C1 [Venetoclax] + COc1cc(Nc2ncc3c(n2)-c2ccc(Cl)cc2C(c2c(F)cccc2OC)=NC3)ccc1C(=O)O [Alisertib] (first compound max 1 µM, 7x7, partner max 10 µM)	0.803	0.807	0.343	0.632	0.639	0.688	0.303	0.405	0.379	0.431	0.995	-0.0401
CC1(C)CCC(CN2CCN(c3ccc(C(=O)NS(=O)(=O)c4ccc(NCC5CCOCC5)c([N+](=O)[O-])c4)c(Oc4cnc5[nH]ccc5c4)c3)CC2)=C(c2ccc(Cl)cc2)C1 [Venetoclax] + C[C@@H]1COCCN1C2=NC(=NC(=C2)C3(CC3)[S@](=N)(=O)C)C4=C5C=CNC5=NC=C4 [AZD6738] (first compound max 1 µM, 7x7, partner max 10 µM)	0.844	1	0.454	0.91	0.827	0.771	0.815	0.316	0.875	0.479	0.976	-0.0361
CC1(C)CCC(CN2CCN(c3ccc(C(=O)NS(=O)(=O)c4ccc(NCC5CCOCC5)c([N+](=O)[O-])c4)c(Oc4cnc5[nH]ccc5c4)c3)CC2)=C(c2ccc(Cl)cc2)C1 [Venetoclax] + C[C@@H](Nc1cc(F)cc(F)c1)c1cc(C(=O)N(C)C)cc2c(=O)cc(N3CCOCC3)oc12 [AZD8186] (first compound max 1 µM, 7x7, partner max 3 µM)	0.746	0.262	0.184	0.387	0.373	0.701	0.297	0.328	0.141	0.327	0.617	-0.0428
CC1(C)CCC(CN2CCN(c3ccc(C(=O)NS(=O)(=O)c4ccc(NCC5CCOCC5)c([N+](=O)[O-])c4)c(Oc4cnc5[nH]ccc5c4)c3)CC2)=C(c2ccc(Cl)cc2)C1 [Venetoclax] + Cc1cc2ncnn2cc1Nc1ncc2c(n1)n(C1CCOCC1)c(=O)n2C [AZD7648] (first compound max 1 µM, 7x7, partner max 10 µM)	0.756	0.23	0.264	0.451	0.477	0.654	0.171	0.411	0.145	0.408	0.698	-0.0068
CC1(C)CCC(CN2CCN(c3ccc(C(=O)NS(=O)(=O)c4ccc(NCC5CCOCC5)c([N+](=O)[O-])c4)c(Oc4cnc5[nH]ccc5c4)c3)CC2)=C(c2ccc(Cl)cc2)C1 [Venetoclax] + Cn1cnc2c(F)c(Nc3ccc(Br)cc3Cl)c(C(=O)NOCCO)cc21 [Selumetinib] (first compound max 1 µM, 7x7, partner max 3 µM)	0.755	1	0.255	0.568	0.415	0.693	0.292	0.505	0.31	0.206	0.207	-0.0404
